Experimental data published in patent publication US11739070B2, “C5A receptor modulators” (IDORSIA PHARMACEUTICALS LTD, priority 2018, dated 2023).

Biological target: T1, C5AR1 (Homo sapiens, UniProt P21730)
T1 construct: host or cells: CHO-K1
T1 sequence (P21730 1-350): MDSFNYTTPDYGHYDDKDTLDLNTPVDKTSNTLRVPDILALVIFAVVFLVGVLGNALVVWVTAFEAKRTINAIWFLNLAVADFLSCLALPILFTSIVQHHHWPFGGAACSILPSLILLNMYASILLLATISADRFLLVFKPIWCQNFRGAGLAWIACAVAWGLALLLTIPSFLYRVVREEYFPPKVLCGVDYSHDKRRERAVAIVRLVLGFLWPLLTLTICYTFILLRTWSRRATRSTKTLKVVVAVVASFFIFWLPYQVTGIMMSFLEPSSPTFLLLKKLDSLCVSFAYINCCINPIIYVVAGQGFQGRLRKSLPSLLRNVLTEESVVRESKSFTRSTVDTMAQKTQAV
Test: hC5a DISCO IC50 assay (PathHunter beta-arrestin, antagonist mode)
Type: cell-based
Conditions: CHO-K1 C5AR1 beta-arrestin cell line; antagonist vs 1-10 nM C5a agonist; geometric mean values; read-out: C5aR IC50
Procedure: II. Biological Assays In Vitro Assay hC5a DISCO IC50 Assay
5 μl Antagonist at 6-fold end concentration or DMSO control is added to assay medium and subsequently 5 μl 1-10 nM C5a agonist at 6 fold end concentration. Cells are centrifuged for 1 min at 1000 rpm and incubated for 1.5 hour in at 37° C. Plates are equilibrated at room temperature for several minutes before adding 12 μl/well Detection Reagent (PathHunter Detection Kit, DiscoverX, Cat #93-0001). Plates are centrifuged for 1 min at 1000 rpm and incubated for 45 minutes at RT before being measured on a Fluostar Optima, BMG Labtech. IC50 values are calculated from a serial dilution range of antagonist using inhouse software and given in nmol/l.
The calculated IC50 values may fluctuate depending on the daily cellular assay performance. Fluctuations of this kind are known to those skilled in the art. Average IC50 values from several measurements are given as geometric mean values.

Question: For `COc1nccc(C)c1N1CC[C@@H](n2c(=O)n(Cc3ccccc3C(F)(F)F)c3c(OC)cccc32)C1` [Example 33, 4-Methoxy-1-[(R)-1-(2-methoxy-4-methyl-pyridin-3-yl)-pyrrolidin-3-yl]-3-(2-trifluoromethyl-benzyl)-1,3-dihydro-benzoimidazol-2-one], which IC50 is on record?
Answer: 8 nM

Question: How did the IC50 turn out when `COc1cccc2c1n(Cc1ccccc1C(F)(F)F)c(=O)n2[C@@H]1CCN(c2c(F)cncc2F)C1` [Example 34, 1-[(R)-1-(3,5-Difluoro-pyridin-4-yl)-pyrrolidin-3-yl]-4-methoxy-3-(2-trifluoromethyl-benzyl)-1,3-dihydro-benzoimidazol-2-one] was run?
Answer: 27 nM

Question: For `COc1cccc2c1n(Cc1ccccc1C(F)(F)F)c(=O)n2C1CCN(C(C)C)CC1` [Example 35, 1-(1-Isopropyl-piperidin-4-yl)-4-methoxy-3-(2-trifluoromethyl-benzyl)-1,3-dihydro-benzoimidazol-2-one], which IC50 is on record?
Answer: 4510 nM

Question: For `COc1cccc2c1n(Cc1ccccc1C(F)(F)F)c(=O)n2[C@@H]1CCN(c2c(C)cncc2C)C1` [Example 36, 1-[(R)-1-(3,5-Dimethyl-pyridin-4-yl)-pyrrolidin-3-yl]-4-methoxy-3-(2-trifluoromethyl-benzyl)-1,3-dihydro-benzoimidazol-2-one], which IC50 is on record?
Answer: 450 nM

Question: Which IC50 does the source give for `COc1cccc2c1n(Cc1ccccc1C(F)(F)F)c(=O)n2[C@@H]1CCN(c2c(C)ccnc2F)C1` [Example 37, 1-[(R)-1-(2-Fluoro-4-methyl-pyridin-3-yl)-pyrrolidin-3-yl]-4-methoxy-3-(2-trifluoromethyl-benzyl)-1,3-dihydro-benzoimidazol-2-one] here?
Answer: 7 nM

Question: For `COc1cncc(OC)c1N1CC[C@@H](n2c(=O)n(Cc3ccccc3C(F)(F)F)c3c(OC)cccc32)C1` [Example 38, 1-[(R)-1-(3,5-Dimethoxy-pyridin-4-yl)-pyrrolidin-3-yl]-4-methoxy-3-(2-trifluoromethyl-benzyl)-1,3-dihydro-benzoimidazol-2-one], which IC50 is on record?
Answer: 470 nM

Question: Which IC50 does the source give for `COc1nccc2c1n(Cc1ccccc1C(F)(F)F)c(=O)n2[C@@H]1CCN(C(=O)OC(C)(C)C)C1` [Example 39, (R)-3-[4-Methoxy-2-oxo-3-(2-trifluoromethyl-benzyl)-2,3-dihydro-imidazo[4,5-c]pyridin-1-yl]-pyrrolidine-1-carboxylic acid tert-butyl ester] here?
Answer: 2430 nM

Question: Which IC50 does the source give for `Cc1cccc(F)c1N1CC[C@@H](n2c(=O)n(Cc3ccccc3C(F)(F)F)c3c(O)cccc32)C1` [Example 40, 1-[(R)-1-(2-Fluoro-6-methyl-phenyl)-pyrrolidin-3-yl]-4-hydroxy-3-(2-trifluoromethyl-benzyl)-1,3-dihydro-benzoimidazol-2-one] here?
Answer: 6 nM

Question: Which IC50 does the source give for `COc1nccc2c1n(Cc1ccccc1C(F)(F)F)c(=O)n2[C@@H]1CCN(c2c(C)cccc2C)C1` [Example 41, 1-[(R)-1-(2,6-Dimethyl-phenyl)-pyrrolidin-3-yl]-4-methoxy-3-(2-trifluoromethyl-benzyl)-1,3-dihydro-imidazo[4,5-c]pyridin-2-one] here?
Answer: 18 nM

Question: For `COc1nccc2c1n(Cc1ccccc1C(F)(F)F)c(=O)n2[C@@H]1CCN(c2c(F)cccc2F)C1` [Example 42, 1-[(R)-1-(2,6-Difluoro-phenyl)-pyrrolidin-3-yl]-4-methoxy-3-(2-trifluoromethyl-benzyl)-1,3-dihydro-imidazo[4,5-c]pyridin-2-one], which IC50 is on record?
Answer: 75 nM

Question: With `COc1ccnc2c1n(Cc1ccccc1C(F)(F)F)c(=O)n2[C@@H]1CCN(C(=O)OC(C)(C)C)C1` [Example 43, (R)-3-[7-Methoxy-2-oxo-1-(2-trifluoromethyl-benzyl)-1,2-dihydro-imidazo[4,5-b]pyridin-3-yl]-pyrrolidine-1-carboxylic acid tert-butyl ester] as the molecule, how does the IC50 read?
Answer: 393 nM

Question: How did the IC50 turn out when `Cc1cccc(C)c1N1CC[C@@H](n2c(=O)n(Cc3ccccc3C(F)(F)F)c3c(O)cccc32)C1` [Example 44, 1-[(R)-1-(2,6-Dimethyl-phenyl)-pyrrolidin-3-yl]-4-hydroxy-3-(2-trifluoromethyl-benzyl)-1,3-dihydro-benzoimidazol-2-one] was run?
Answer: 13 nM
